Experimental data taken from PubChem BioAssay AID1990 (Broad Institute, 2009).
Inconclusive results are not listed. The source made the active and inactive calls. How the calls were made is not given here.

Target: Luciferin 4-monooxygenase (Photinus pyralis) (UniProt P08659)
Test: Luciferase translation or activity inhibitors, H4 neuroglioblastoma cells, luminescence dose response (AID 1990)
Settings: H4 neuroglioma cells

Sequence of Luciferin 4-monooxygenase (Photinus pyralis) (P08659 whole entry, looked up): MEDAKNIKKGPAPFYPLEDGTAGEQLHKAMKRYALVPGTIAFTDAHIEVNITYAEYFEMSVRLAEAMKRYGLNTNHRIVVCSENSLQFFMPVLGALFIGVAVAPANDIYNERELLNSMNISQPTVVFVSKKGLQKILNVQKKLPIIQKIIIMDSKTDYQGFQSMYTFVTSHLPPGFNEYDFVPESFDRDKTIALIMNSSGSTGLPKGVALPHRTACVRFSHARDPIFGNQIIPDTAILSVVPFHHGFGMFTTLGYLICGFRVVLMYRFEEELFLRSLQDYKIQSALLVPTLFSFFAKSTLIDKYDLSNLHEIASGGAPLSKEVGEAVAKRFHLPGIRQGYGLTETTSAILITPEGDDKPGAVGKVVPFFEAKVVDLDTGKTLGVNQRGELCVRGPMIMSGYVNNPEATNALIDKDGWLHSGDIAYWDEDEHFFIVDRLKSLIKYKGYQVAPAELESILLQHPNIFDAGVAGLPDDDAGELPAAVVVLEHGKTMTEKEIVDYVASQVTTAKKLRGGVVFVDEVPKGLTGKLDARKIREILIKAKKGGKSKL

For `C=C(C=O)CC1CC(O)[C@]2(C)OC3CC4OC5C[C@]6(C)O[C@]7(C)CCC8OC9C[C@]%10(C)OC%11C(C)=CC(=O)OC%11CC%10OC9C[C@@H](C)C8OC7CC6O[C@]5(C)CC5OC5C4OC3CC2O1` (stereo partly drawn), the EC50 was > 12 µM (inactive).
Molecule `COc1ccc(O)c2c(=O)c3c(OC)cc4c(c3oc12)C1C=COC1O4` (stereo not drawn) has an EC50 of under 0.1 µM.
`C#CCOCCOCCOCCNc1nc(N2CCN(C(=O)CCCCCCCCCCNC(=O)[C@H](CO)n3cc(CCCSC)nn3)CC2)nc(N2CCN(C(=O)CCCCCCCCCCNC(=O)[C@H](CCCCN)n3cc(C[C@@H](C)CC)nn3)CC2)n1` was tested, and the EC50 was 7.24 µM.
